Data on 59 compounds can be found in BindingDB's records for doi:10.1007/s10822-022-00478-x (Roche Innovation Center Basel, F. Hoffmann-La Roche Ltd., 2022).

Each structure is given as a SMILES string.

This experiment deals with cAMP and cAMP-inhibited cGMP 3',5'-cyclic phosphodiesterase 10A (Homo sapiens, UniProt Q9Y233). Description: PDE10A assay. A digest of the protocol: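 Human PDE10A (2 ng/well) preincubated 15 min RT with compound in HEPES pH 7.5, 10 mM MgCl2, BSA, then reacted 15 min with 50 nM [3H]cGMP/cGMP substrate. Stopped with Y-Si SPA beads; bound radioactivity counted, IC50 from four-parameter logistic, pIC50 = −log10(IC50).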

As usually defined, the IC50 is the concentration that gives 50% inhibition. Read a low IC50 as greater potency.

Consider `Cc1c(C(F)F)nc2ccc(CCc3nc(-c4ccccc4)cn3C)nn12` [US10399985, Example 19], for which the midpoint of inhibition, the IC50, lay at 5.6 nM. The result for `COc1ccc(Cl)cc1C(=O)Nc1cc(-c2ccccn2)nn1C` [Roche-Dataset for PDE10A, Compound 608] reads 1380 nM. The result for `Cn1ncc(NC(=O)c2c(C(=O)N3CCC3)cnn2C)c1C(=O)N1CCCCC1` [Roche-Dataset for PDE10A, Compound 1035] reads 4330 nM; that for `CN1CCN(c2nc3cc(NC(=O)c4c(C(=O)N5CCC5)cnn4C)ccc3s2)CC1` [Roche-Dataset for PDE10A, Compound 546], 392 nM. `Cn1ncc(C(=O)N2CCC2)c1C(=O)Nc1ccn2nc(-c3cccc(OCF)c3)nc2c1` [Roche-Dataset for PDE10A, Compound 96] had an IC50 of 0.85 nM.

The compound `Cc1cc(C)n2nc(CCc3ncnn3C)nc2n1` [Roche-Dataset for PDE10A, Compound 1159] showed a half-inhibitory concentration (IC50) of 10000 nM.

`CN(C)c1nc(OCc2nc(-c3ccccc3)cn2C)nc2ccc(Cl)cc12` [Roche-Dataset for PDE10A, Compound 89]: the IC50 came to 3.68 nM. The result for `CCN(C)C(=O)c1cnn(C)c1C(=O)Nc1ccn2nc(N3CCOCC3)nc2c1` [Roche-Dataset for PDE10A, Compound 315] reads 5.67 nM; that for `Cn1nc(-c2ccc3ccccc3n2)cc1NC(=O)c1nc(C2CC2)ccc1Nc1cncnc1` [US8470820, 40], 0.08 nM. With `O=C(NCCN1CCc2ccccc2C1=O)c1nc(C2CC2)cnc1Nc1cncnc1` [Roche-Dataset for PDE10A, Compound 451] the figure was 574 nM; with `Cc1nc(-c2ccccc2Cl)n2c3cc(Cl)ccc3c(=O)n(C)c12` [Roche-Dataset for PDE10A, Compound 987], 6.54 nM. Consider `CNC(=O)c1cc2[nH]c(-c3ccccc3)nc2cc1NC(=O)c1ccnn1C` [Roche-Dataset for PDE10A, Compound 452], for which inhibition was half-maximal at 14 nM (IC50). For `O=C(N[C@@H](CO)Cc1ccccc1)c1nc(C2CC2)cnc1Nc1cncnc1` [Roche-Dataset for PDE10A, Compound 641], half-maximal inhibition (IC50) was put at 1430 nM. With `Cn1cc(-c2ccccc2)nc1/C=C/c1cc(Cl)nc(Cl)n1` [Roche-Dataset for PDE10A, Compound 543] the figure was 2310 nM; with `CN(C)C(=O)c1cc(NC(=O)c2nc(C3CC3)ccc2Nc2cncnc2)n(C)n1` [Roche-Dataset for PDE10A, Compound 404], 444 nM; with `O=C(Nc1conc1-c1ccccc1)c1nc(C2CC2)ccc1Nc1cncnc1` [Roche-Dataset for PDE10A, Compound 935], 6.91 nM. `O=C(NCC1(c2ccccc2)CCCCC1)c1nc(C2CC2)cnc1Nc1cncnc1` [Roche-Dataset for PDE10A, Compound 804]: the half-inhibitory concentration (IC50) was found to be 728 nM. The result for `O=C(Nc1ccc2nccnc2c1)c1nc(C2CC2)ccc1Nc1cncnc1` [Roche-Dataset for PDE10A, Compound 945] reads 55 nM; that for `Cc1c(Cl)cc(Cl)c2nc(CCc3cn4ccccc4n3)nn12` [Roche-Dataset for PDE10A, Compound 663], 9.41 nM.

In turn, `Cn1nc(-c2ccccn2)cc1NC(=O)c1ccn(CC(F)(F)F)n1` [Roche-Dataset for PDE10A, Compound 662] came in with a half-maximal inhibitory concentration (IC50) of 10000 nM. Take `COCc1cc(C(=O)Nc2ccn3nc(-c4ccccc4)nc3c2)n(C)n1` [Roche-Dataset for PDE10A, Compound 390]: the IC50 worked out at 87 nM.

In turn, `CC(C)(O)CNC(=O)c1cc(OCCO)ccc1NC(=O)c1nc(C2CC2)cnc1Nc1cncnc1` [US8703768, 215] showed an IC50 of 0.49 nM. `Cc1c(Cl)cc(OC(F)F)c2nc(CCc3nc(N4CCCC4)n(C)n3)nn12` [Roche-Dataset for PDE10A, Compound 206] displayed an IC50 of 0.54 nM. `CCCNC(=O)c1cc(NC(=O)c2c(C(=O)N3CCC3)cnn2C)nn1C` [Roche-Dataset for PDE10A, Compound 871] registered a half-inhibitory concentration (IC50) of 10000 nM.

`Cc1cc(NC(=O)c2ccc3cc(-c4ccccc4)nn3c2)on1` [Roche-Dataset for PDE10A, Compound 898] had an IC50 of 3350 nM. The result for `Cc1noc(C(F)(F)F)c1C(=O)Nc1ccn2nc(-c3ccccc3)nc2c1` [Roche-Dataset for PDE10A, Compound 478] reads 9330 nM.

In the case of `CCNC(=O)c1c(NC(=O)c2c(C(=O)N3CCC3)cnn2C)cnn1CC` [Roche-Dataset for PDE10A, Compound 1076], the IC50 came out at 1920 nM. The result for `Cc1ncc(O)c2nc(CCc3nc(N4CCCC4)nn3C)nn12` [Roche-Dataset for PDE10A, Compound 705] reads 140 nM; that for `COc1ccccc1-c1nc2cc(NC(=O)c3c(C(=O)O)cnn3C)ccn2n1` [Roche-Dataset for PDE10A, Compound 356], 9.74 nM. The result for `Cn1ncc(C(=O)N2CCC2)c1C(=O)Nc1ccn(-c2cc(Cl)cc(Cl)c2)n1` [Roche-Dataset for PDE10A, Compound 1051] reads 43 nM; that for `Cn1cc(-c2ccccc2)nc1CCc1nc2c(cnn2C)c(=O)[nH]1` [Roche-Dataset for PDE10A, Compound 854], 50 nM; that for `CC(=O)N1CCc2ccc(NC(=O)c3nc(C4CC4)cnc3Nc3cncnc3)cc21` [Roche-Dataset for PDE10A, Compound 827], 5.85 nM.

Compound `Cc1ccc(NC(=O)c2nc(C3CC3)cnc2Nc2cncnc2)c(C(=O)N(C)C)n1` [US8703768, 276] came in with a half-inhibitory concentration (IC50) of 13 nM. With `CN(C(=O)c1cnn(C)c1C(=O)N[C@@H]1CCn2c(nc(-c3ccccc3)c2Cl)C1)C1CC1` [Roche-Dataset for PDE10A, Compound 110], the half-inhibitory concentration (IC50) is 52 nM.

With `Cn1cc(-c2ccccc2)nc1CCc1cccc(-c2ccccn2)n1` [Roche-Dataset for PDE10A, Compound 237], the IC50 was determined as 2420 nM. `O=C(Nc1cc(-c2ccccn2)nn1CC(F)(F)F)c1nc(C2CC2)ccc1Nc1cncnc1` [US8470820, 22] showed an IC50 of 2.54 nM. With `Cn1cc(-c2ccccc2)nc1CCc1cnc2ccccc2n1` [US9834564, Compound 20] the figure was 21 nM. With `CNC(=O)c1cc(CCC(=O)O)ccc1NC(=O)c1nc(C2CC2)cnc1Nc1cncnc1` [US8703768, 328] the figure was 0.39 nM; with `Cc1cnc(C)n2nc(CCc3ncnn3C)nc12` [Roche-Dataset for PDE10A, Compound 1130], 2420 nM. With `CN(C)c1cc(C(=O)Nc2ccn3nc(-c4ccccc4)nc3c2)cc(Cl)n1` [Roche-Dataset for PDE10A, Compound 167] the figure was 131 nM. `CCN(C)C(=O)c1ncccc1NC(=O)c1nc(C2CC2)cnc1Nc1cncnc1` [US8703768, 199] showed an IC50 of 5.93 nM. With `O=C(Nc1ccn(CC(F)(F)F)n1)c1nc(Cl)ccc1Nc1cncnc1` [Roche-Dataset for PDE10A, Compound 859] the figure was 156 nM; with `Cc1ccc(C)c(C(=O)Nc2cc(-c3ccccn3)nn2C)n1` [Roche-Dataset for PDE10A, Compound 726], 3340 nM. Consider `COc1ccccc1-c1cn2c(n1)C[C@H](NC(=O)c1c(C(=O)N(C)C)cnn1C)CC2` [Roche-Dataset for PDE10A, Compound 473], for which the midpoint of inhibition, the IC50, lay at 8.21 nM.

For the compound `Cc1cc(NC(=O)c2c(C(=O)N3CCC3)cnn2C)nn1CC(F)F` [Roche-Dataset for PDE10A, Compound 1050], the IC50 stood at 136 nM. The result for `COc1ncc(C2CC2)nc1C(=O)Nc1cc(-c2ccccn2)nn1C` [Roche-Dataset for PDE10A, Compound 776] reads 1680 nM; that for `Cn1nccc1NC(=O)c1nc(C2CC2)ccc1Nc1cncnc1` [Roche-Dataset for PDE10A, Compound 1033], 104 nM.

`Cc1c(C(F)F)nc2ccc(C#Cc3nc(N4CCCC4)nn3C)nn12` [2-(Difluoromethyl)-3-methyl-6-((1-methyl-3-(pyrrolidin-1-yl)-1H-1,2,4-triazol-5-yl)ethynyl)imidazo[1,2-b]pyridazine] displayed an IC50 of 4.74 nM. `COC1CN(C(=O)c2cnn(C)c2C(=O)Nc2ccn3nc(-c4ccccc4)nc3c2)C1` [Roche-Dataset for PDE10A, Compound 139] yielded a half-inhibitory concentration (IC50) of 25 nM.

Consider `COC(=O)c1cccc(NC(=O)c2nc(C3CC3)cnc2Nc2cncnc2)n1` [Roche-Dataset for PDE10A, Compound 1037], for which the 50% inhibitory concentration (IC50) came to 29 nM. Compound `Cc1ccc(CNC(=O)c2cnn(C)c2C(=O)Nc2ccn3cc(-c4ccccc4)nc3n2)nc1` [Roche-Dataset for PDE10A, Compound 862] returned an IC50 of 322 nM.

In turn, `Cn1ncc(C(=O)N2CCC2)c1C(=O)Nc1ccn2cc(-c3cccc(OCCCF)c3)nc2n1` [Roche-Dataset for PDE10A, Compound 28] showed an IC50 of 7.34 nM. The result for `CNC(=O)c1cc2[nH]c(-c3ccccc3)nc2cc1NC(=O)c1oc(COCc2ccccc2)nc1C` [Roche-Dataset for PDE10A, Compound 152] reads 51 nM; that for `CCOC(=O)c1cnn(C)c1C(=O)N(C)c1ccn2nc(-c3ccccc3)nc2c1` [Roche-Dataset for PDE10A, Compound 825], 10000 nM; that for `CNC(=O)c1c(NC(=O)c2nc(Cl)c(OC)nc2Nc2cncnc2)cnn1C` [Roche-Dataset for PDE10A, Compound 1152], 4550 nM. With `CCOC(=O)c1cnn(C)c1C(=O)Nc1ccn2nc(-c3cccnc3)nc2c1` [Roche-Dataset for PDE10A, Compound 268] the figure was 34 nM; with `CN(C)CCn1ccc(NC(=O)c2nc(C3CC3)cnc2Nc2cncnc2)n1` [Roche-Dataset for PDE10A, Compound 828], 29 nM; with `CNC(=O)c1cc(NC(=O)c2c(C(=O)N3CCC3)cnn2C)nn1C` [Roche-Dataset for PDE10A, Compound 1021], 10000 nM.

For `Cc1ncc(Nc2cncnc2)c(C(=O)N[C@@H]2CCN(c3ccc(Cl)cn3)C2)n1` [Roche-Dataset for PDE10A, Compound 336], the IC50 is 242 nM.
